Article PMC9245008 (ACS chemical biology, 2022)

Key:
TAK1 [1] = target: T1, TAK1 (Homo sapiens, UniProt O43318); test: Potency of takinib analogues against TAK1; format: biochemical
T1 sequence (O43318 1-303 limits assumed): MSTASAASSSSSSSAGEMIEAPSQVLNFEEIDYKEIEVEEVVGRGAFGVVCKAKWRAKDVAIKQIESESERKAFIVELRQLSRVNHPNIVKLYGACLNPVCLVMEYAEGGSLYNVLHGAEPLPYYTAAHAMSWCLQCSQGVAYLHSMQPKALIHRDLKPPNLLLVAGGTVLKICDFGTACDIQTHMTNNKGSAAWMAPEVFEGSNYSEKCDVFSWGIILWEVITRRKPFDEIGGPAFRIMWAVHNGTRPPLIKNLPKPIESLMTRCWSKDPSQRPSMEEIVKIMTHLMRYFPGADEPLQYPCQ

TAK1 [2] = target: T2, TAK1 (Homo sapiens, UniProt O43318); test: MRC Dundee kinase panel screen at 10 μM; format: biochemical
T2 sequence (O43318 with tags, fused parts or gaps limits assumed): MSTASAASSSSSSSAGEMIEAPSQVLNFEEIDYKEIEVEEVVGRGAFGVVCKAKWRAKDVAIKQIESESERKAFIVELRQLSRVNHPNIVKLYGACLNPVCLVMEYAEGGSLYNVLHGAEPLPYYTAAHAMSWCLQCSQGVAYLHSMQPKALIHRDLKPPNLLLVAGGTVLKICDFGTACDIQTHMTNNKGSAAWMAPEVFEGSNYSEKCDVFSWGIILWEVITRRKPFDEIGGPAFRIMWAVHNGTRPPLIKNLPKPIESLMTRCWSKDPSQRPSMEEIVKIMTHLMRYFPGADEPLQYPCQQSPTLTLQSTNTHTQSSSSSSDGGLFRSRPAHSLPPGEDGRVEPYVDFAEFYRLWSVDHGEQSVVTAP

MAP4K5 = MAP4K5 (Homo sapiens, UniProt Q9Y4K4); test: MRC Dundee kinase panel screen at 10 μM; format: biochemical
Sequence of MAP4K5 (Q9Y4K4 whole entry): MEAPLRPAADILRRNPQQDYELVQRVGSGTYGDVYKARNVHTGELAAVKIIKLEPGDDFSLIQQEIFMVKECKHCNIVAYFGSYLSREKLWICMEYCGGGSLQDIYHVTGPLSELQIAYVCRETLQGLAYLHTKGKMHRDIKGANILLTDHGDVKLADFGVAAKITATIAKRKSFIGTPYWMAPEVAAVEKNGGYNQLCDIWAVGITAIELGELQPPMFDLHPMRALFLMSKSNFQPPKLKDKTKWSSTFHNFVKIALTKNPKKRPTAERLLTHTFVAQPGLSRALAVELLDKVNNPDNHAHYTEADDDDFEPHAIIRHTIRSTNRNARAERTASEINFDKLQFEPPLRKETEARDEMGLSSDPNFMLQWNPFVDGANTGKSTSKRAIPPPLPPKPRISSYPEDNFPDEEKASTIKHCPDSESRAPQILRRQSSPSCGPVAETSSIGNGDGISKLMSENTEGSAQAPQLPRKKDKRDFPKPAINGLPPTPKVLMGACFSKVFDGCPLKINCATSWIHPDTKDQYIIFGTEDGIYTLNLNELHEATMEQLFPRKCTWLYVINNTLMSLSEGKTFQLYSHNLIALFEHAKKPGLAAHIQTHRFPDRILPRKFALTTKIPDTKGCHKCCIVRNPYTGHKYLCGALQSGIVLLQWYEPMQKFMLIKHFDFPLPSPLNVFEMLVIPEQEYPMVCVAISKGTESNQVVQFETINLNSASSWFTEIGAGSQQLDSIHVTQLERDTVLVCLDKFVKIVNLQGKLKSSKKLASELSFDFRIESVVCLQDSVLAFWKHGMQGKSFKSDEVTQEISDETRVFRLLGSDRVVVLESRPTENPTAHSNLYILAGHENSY

ULK2 = target: T3, ULK2 (Homo sapiens, UniProt Q8IYT8); test: MRC Dundee kinase panel screen at 10 μM; format: biochemical
T3 sequence (Q8IYT8 1-1036): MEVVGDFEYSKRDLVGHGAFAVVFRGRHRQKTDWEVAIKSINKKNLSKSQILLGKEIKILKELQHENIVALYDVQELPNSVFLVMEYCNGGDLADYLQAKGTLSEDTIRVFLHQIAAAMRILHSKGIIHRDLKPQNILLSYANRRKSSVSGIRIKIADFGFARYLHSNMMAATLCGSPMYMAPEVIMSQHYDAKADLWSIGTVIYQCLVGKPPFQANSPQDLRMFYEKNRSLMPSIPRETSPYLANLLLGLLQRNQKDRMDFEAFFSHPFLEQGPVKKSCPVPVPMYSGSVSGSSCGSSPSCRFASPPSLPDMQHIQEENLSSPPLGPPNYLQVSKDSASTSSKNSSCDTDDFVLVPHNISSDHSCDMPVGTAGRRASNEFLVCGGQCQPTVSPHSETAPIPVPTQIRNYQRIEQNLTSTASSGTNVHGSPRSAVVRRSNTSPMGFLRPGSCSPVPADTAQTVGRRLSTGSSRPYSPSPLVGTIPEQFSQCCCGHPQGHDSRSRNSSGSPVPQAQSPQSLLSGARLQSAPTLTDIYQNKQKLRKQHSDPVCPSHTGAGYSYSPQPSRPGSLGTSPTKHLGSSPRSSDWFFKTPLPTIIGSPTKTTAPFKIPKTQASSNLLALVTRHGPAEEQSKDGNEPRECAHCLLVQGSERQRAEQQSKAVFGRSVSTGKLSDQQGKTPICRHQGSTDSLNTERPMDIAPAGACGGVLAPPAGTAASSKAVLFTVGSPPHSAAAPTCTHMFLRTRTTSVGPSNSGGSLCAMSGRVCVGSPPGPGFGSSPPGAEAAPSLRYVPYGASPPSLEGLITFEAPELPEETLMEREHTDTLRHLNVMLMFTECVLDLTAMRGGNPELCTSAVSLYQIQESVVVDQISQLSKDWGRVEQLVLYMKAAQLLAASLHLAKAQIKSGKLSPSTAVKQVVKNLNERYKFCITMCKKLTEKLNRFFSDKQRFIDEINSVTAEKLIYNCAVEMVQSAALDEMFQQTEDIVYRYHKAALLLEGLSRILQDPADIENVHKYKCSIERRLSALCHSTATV

TAK1 [3] = target: T2, TAK1; test: Dose–response of top 10 kinase hits; format: biochemical; conditions: read-out: IC50 TAK1, n = 2
CLK2 = CLK2 (Homo sapiens, UniProt P49760); test: Dose–response of top 10 kinase hits; format: biochemical
Sequence of CLK2 (P49760 whole entry): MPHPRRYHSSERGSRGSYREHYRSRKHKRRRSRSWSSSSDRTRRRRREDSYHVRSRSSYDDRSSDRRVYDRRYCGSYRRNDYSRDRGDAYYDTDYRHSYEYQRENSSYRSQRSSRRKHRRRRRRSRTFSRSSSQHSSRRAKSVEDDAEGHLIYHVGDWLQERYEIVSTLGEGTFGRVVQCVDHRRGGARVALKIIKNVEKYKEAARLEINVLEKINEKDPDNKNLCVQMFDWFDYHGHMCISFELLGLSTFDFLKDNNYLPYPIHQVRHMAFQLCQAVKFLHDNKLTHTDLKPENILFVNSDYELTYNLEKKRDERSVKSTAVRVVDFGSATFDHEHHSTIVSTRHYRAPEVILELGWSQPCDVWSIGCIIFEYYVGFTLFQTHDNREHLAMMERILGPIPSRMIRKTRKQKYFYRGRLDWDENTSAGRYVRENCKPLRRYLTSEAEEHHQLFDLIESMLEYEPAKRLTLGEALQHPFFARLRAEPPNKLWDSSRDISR

GCK = target: T4, GCK (Homo sapiens, UniProt Q12851); test: Dose–response of top 10 kinase hits; format: biochemical
T4 sequence (Q12851 1-820): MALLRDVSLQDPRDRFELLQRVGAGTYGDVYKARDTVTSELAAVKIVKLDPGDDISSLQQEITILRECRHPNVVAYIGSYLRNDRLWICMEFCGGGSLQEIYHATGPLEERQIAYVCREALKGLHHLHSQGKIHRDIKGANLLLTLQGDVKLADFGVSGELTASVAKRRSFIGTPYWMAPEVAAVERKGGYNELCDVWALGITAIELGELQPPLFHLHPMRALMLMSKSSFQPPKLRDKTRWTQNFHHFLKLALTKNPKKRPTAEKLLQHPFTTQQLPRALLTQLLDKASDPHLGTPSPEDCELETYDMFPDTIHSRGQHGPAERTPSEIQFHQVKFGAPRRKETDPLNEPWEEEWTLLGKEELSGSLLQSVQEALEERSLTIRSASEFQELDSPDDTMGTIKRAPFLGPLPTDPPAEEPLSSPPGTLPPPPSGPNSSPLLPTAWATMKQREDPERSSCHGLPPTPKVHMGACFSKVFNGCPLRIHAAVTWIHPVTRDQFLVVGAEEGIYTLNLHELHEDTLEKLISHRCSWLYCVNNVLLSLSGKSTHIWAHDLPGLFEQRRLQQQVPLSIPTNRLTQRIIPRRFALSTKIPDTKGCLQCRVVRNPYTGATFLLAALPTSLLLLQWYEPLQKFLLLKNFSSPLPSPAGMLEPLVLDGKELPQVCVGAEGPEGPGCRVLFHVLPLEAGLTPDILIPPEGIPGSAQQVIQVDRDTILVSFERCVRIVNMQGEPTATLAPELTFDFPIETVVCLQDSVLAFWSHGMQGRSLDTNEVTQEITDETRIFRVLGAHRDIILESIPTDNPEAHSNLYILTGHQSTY

CAMKKβ−1 = CAMKKβ−1 (Homo sapiens, UniProt Q96RR4); test: Dose–response of top 10 kinase hits; format: biochemical; conditions: read-out: IC50 CAMKKβ−1, n = 2
Sequence of CAMKKβ−1 (Q96RR4 whole entry): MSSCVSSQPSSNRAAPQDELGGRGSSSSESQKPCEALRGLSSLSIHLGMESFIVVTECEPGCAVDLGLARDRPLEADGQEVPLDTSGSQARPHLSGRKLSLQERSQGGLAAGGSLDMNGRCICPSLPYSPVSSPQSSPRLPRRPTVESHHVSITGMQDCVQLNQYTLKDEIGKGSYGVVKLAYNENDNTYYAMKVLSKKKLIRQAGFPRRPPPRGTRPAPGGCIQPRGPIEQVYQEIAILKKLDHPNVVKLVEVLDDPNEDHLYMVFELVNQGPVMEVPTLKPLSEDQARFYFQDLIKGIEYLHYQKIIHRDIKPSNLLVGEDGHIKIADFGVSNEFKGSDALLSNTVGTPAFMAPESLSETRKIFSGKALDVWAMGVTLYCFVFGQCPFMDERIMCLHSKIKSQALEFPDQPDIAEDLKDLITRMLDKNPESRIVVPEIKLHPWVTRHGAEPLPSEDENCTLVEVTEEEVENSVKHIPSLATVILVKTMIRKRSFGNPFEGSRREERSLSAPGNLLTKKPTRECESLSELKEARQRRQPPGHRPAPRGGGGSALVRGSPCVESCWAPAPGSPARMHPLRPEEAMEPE

[4] = test system: TNF expression in THP-1 human macrophages; test: Cytokine profile in stimulated THP-1 human macrophages; format: cell-based; conditions: 10 μM; THP-1 macrophages stimulated with LPS and IFNγ; vs vehicle

## CCCn1c(NC(=O)c2cccc(C(N)=O)c2)nc2ccc(CN3CCCCC3)cc21 [HS-276]
TAK1 [1]; TAK1
  Ki: 2.5 nM
TAK1 [1]; read-out: TAK1 IC50
  IC50: 2.5 nM
TAK1 [2]
  enzymatic activity: < 15%
MAP4K5
  enzymatic activity: < 15%
ULK2
  enzymatic activity: < 15%
TAK1 [3]
  IC50: 8 nM
CLK2; from dose–response IC50 values
  TAK1 more potently inhibited than CLK2: 3.6 fold
CLK2; read-out: IC50 CLK2, dose–response, n = 2
  IC50: 29 nM
GCK; from dose–response IC50 values
  TAK1 more potently inhibited than GCK: 4.1 fold
GCK; read-out: IC50 GCK, dose–response, n = 2
  IC50: 33 nM
CAMKKβ−1
  IC50: 1280 nM
[4]
  reduction of TNF expression: 11 fold
